For data set [1] the following is noted: cited from earlier work.
A short description of data set [2]: Equilibrium solubility of drug in polymer solution in 0.1N HCl. The class given is physicochemical. Conditions: for solubility thermodynamic at 72 h: 0.1 N HCl without polymer, simulated gastric fluid, thermodynamic from solid, 0.1 N HCl, 37 C, no polymer, read-out: saturation / equilibrium solubility of neat drug; for fold increase in drug solubility in the presence of AGF polymer: AGF dissolved in 0.1N HCl, 0% to 3%, ITRA and KETO at 3%. The protocol:
Anal. Chem. Instrum. […] An excess of IBU (200 mg) was added to 10 ml of polymer solution in 0.1N HCl in a stoppered glass vial and was bath sonicated for 30 minutes. The polymer concentrations ranged from 0% to 3% (0 mg/ml to 30 mg/ml). The vials were kept in a shaking water bath at 37 C and at 50 rpm for 72 hours to obtain equilibrium. After 72 hours the shaker was turned off and the samples were kept at a standstill at 37 C for 3 hours to settle the undissolved drug at the bottom of the glass vials. The supernatant was filtered using a 0.45 micron filter.
For an equilibrium study of itraconazole, 50 mg itraconazole (ITRA) was added to 20 ml of AGF polymer solution in 0.1 N HCl.

Data set [3] can be described thus: In vitro drug dissolution, USP basket method, 0.1 N HCl. In kind it is physicochemical. Conditions: for % drug release at 15 minutes / % drug release at 30 minutes / % drug release at 120 minutes: 0.1N HCl, AGF formulations. The protocol: (§1) The in vitro drug dissolution rates of the dosage forms listed in Table 4 below were determined by the USP basked method (270 mesh, 53 micron pore size). The Van Kel VK7010 dissolution system was employed. 900 ml of 0.1 N HCl at 37° C. was used as a dissolution medium. The media was selected to mimic gastric pH and to allow greater discrimination of ibuprofen dissolution profiles due to formulation and processing effects. The dissolution experiment was run at 100 rpm. Each sample contained a dosage form equivalent to 25 mg of ibuprofen to maintain the non sink conditions, i.e. to employ a volume of medium (900 ml in this case) that is less than the volume of medium required for sink conditions, which is three times that required in order to form a saturated solution of drug. In vitro dissolution of 25 mg of neat ibuprofen was used as a control. At appropriate time intervals, samples were collected and replaced by fresh media. Each sample was filtered and the drug was analyzed using Agilent/HP 8453 UV-Vis spectrophotometer (λmx=222 nm). The experiment was conducted in triplicate. T50 (time for 50% drug release), T60 (time for 60% drug release), and T80 (time for 80% drug release) was recorded directly from the dissolution profiles.
as §1, with “PMs and MSDs made with ibuprofen and AGF or HPMCK3” for “the dosage forms listed in Table 4 below”, “contained an MSD or” for “contained”, “PM” for “dosage form”
In vitro basket dissolution was carried out on SDM and PM formulations as described in Example 3. Each sample of ITRA AGF SDM contained an amount equivalent to 25 mg of ITRA to maintain the non sink conditions. ITRA was analyzed using an Agilent/HP 8453 UV-Vis spectrophotometer (λmax=257 nm).
UV analysis was conducted at λmax=260 nm.
The degree of similarity between the dissolution profiles was calculated using the following equation from Moore and Flanner, 1996, Pharm. Tech. 20:64-74, and using data points up to 85% drug release (Shah et al., 1998, Pharm. Res. 15:889-896):
Two dissolution profiles would be deemed similar if the average difference between the reference and the test assay at the same time point were less than 10%. The similarity factor value would then not be less than 50%.

Data set [4] in a line: Physical stability: XRPD RDC at accelerated storage conditions. Conditions: IBU as reference, 2θ of 22.4°. The class given is physicochemical. The protocol:
The RDC was measured by XRPD as described above for the dosage forms listed in Table 22 at various accelerated storage conditions. Batches of IBU AGF SDM, IBU HPMCK3 SDM, IBU HPMCK3 MSD and IBU AGF MSD at 10% drug load and 20% drug load were prepared as described above. In addition, 10% IBU AGF MSD and 10% IBU AGF SDM batches were prepared with 0.02% butylated hydroxytoluene (BHT), an antioxidant. […] 60% relative humidity and 40° C. […] These findings were confirmed by DSC (not shown).

Data set [5] is described as follows: Relative degree of crystallinity (RDC) by XRPD. In kind it is physicochemical. The conditions noted are these: at 10% DL SD with AGF. The protocol: The term “relative degree of crystallinity (RDC),” as used herein is the degree of crystallinity of the therapeutic agent in the dosage form relative to the degree of crystallinity of the neat therapeutic agent. RDC is calculated using the following formula: RDC=I sample/I therapeutic agent I sample: peak height of the formulation under investigation at a chosen angle (2θ) I therapeutic agent: peak height of the neat therapeutic agent at the same angle that was chosen for the sample (2θ)
Powder X-ray diffraction of the ibuprofen-arabinogalactan MSDs was carried out to determine the crystallinity of the ibuprofen. Powder samples ([…]) were placed on a sample holder and the diffractograms were collected using a Bruker D8 diffractometer (Madison, Wis.) with Cu Kα radiation. The voltage of 40 kV was used and the current was 40 mA. The samples were scanned from 2 θ to 40 θ at a rate of 2 θ/minute. The data analysis was done using Bruker-AXs EVA software (version 15.0).
XRPD were collected using Rigaku D-Max B X-ray Diffractometer (Tokyo, Japan). The powder sample size of 0.5 gram was used and samples were run at 35 kV at 15 mA and […]. JADE software (version 9) was used to process, acquire and analyze the data.

In brackets after ≈: the same amount, converted by molar mass. Where two headings read alike, the source gives them in different places. Some results are limits rather than exact numbers.

`COCCOC(=O)C1=C(C)NC(C)=C(C(=O)OC(C)C)C1c1cccc([N+](=O)[O-])c1` (stereo not shown) [NIMO, nimodipine]: the Solubility in data set [1] was 2299 µg/mL (≈ 5490 µM).

As for `Clc1ccc(C(Cn2ccnc2)OCc2ccsc2Cl)c(Cl)c1` (stereo not shown) [TIOCO, tioconazole], the Solubility in data set [1] was approximately 2 µg/mL (≈ 5.16 µM).

`CC(C)NCC(O)COc1cccc2ccccc12` (stereo not shown) [PROPFB, propranolol free base]: the Solubility in data set [1] is 120 µg/mL (≈ 463 µM).

In the case of `CC(C)Cc1ccc(C(C)C(=O)O)cc1` (stereo not shown) [IBU, Ibuprofen], in data set [2], the solubility thermodynamic at 72 h was 37 µg/mL (≈ 179 µM) and the “fold increase in drug solubility in the presence of AGF polymer” value is 7.3 fold. In addition, the “IBU solubility with increasing HPMCK3 concentration” value in data set [2] (control polymer HPMCK3 in 0.1N HCl) is reported as “did not enhance the solubility”. Besides, in data set [3], the “% drug release at 15 minutes” value worked out at 8%, the “% drug release at 30 minutes” value is recorded as 27% and the “% drug release at 120 minutes” value is listed as 41%. The “T60 (time for 60% drug release)” value in data set [3] (900 ml 0.1 N HCl, 37° C., 100 rpm, 25 mg ibuprofen, non sink) came to 300 min. In data set [4], the “XRPD RDC, 25° C. and 0% relative humidity (6 Months)” value is 1; the “XRPD RDC, 25° C. and 60% relative humidity (6 Months)” value is 1; the “XRPD RDC, 40° C. and 0% relative humidity (3 Months)” value is on record as 1; the “XRPD RDC, 40° C. and 75% relative humidity (3 Months)” value came to 1. The “XRPD RDC, INITIAL” value in data set [4] is 1.

`CCC(C)n1ncn(-c2ccc(N3CCN(c4ccc(OCC5COC(Cn6cncn6)(c6ccc(Cl)cc6Cl)O5)cc4)CC3)cc2)c1=O` (stereo not shown) [ITRA, Itraconazole]: in data set [2], the solubility thermodynamic at 72 h is 5720 µg/mL (≈ 8110 µM) and the “fold increase in drug solubility in the presence of AGF polymer” value is on record as 16 fold.

With `CCCNC(=O)NS(=O)(=O)c1ccc(Cl)cc1` [CHLOPR, chlorpropamide], the Solubility in data set [1] (water at pH 6) was 2500 µg/mL (≈ 9030 µM).

With `CC(=O)N1CCN(c2ccc(OC[C@H]3CO[C@](Cn4ccnc4)(c4ccc(Cl)cc4Cl)O3)cc2)CC1` (racemic) [KETOC, ketoconazole], the Solubility in data set [1] was 10 µg/mL (≈ 18.8 µM).

As to `CC(C(=O)O)c1cccc(Oc2ccccc2)c1` (stereo not shown) [Fenoprofen, fenoprofen], the RDC value in data set [5] is given as 0.125. Besides, the Solubility in data set [1] (for its calcium salt) is on record as <<<<<<2500 μg/ml.

Take `C[C@@H](C(=O)O)c1ccc(-c2ccccc2)c(F)c1` [FLURBI, flurbiprofen]: the Solubility in data set [1] was 482 µg/mL (≈ 1970 µM).

For `CC(C(=O)O)c1cccc(C(=O)c2ccccc2)c1` (stereo not shown) [KETO, Ketoprofen], in data set [3], the “% drug release at 15 minutes” value was determined as 1.8%, the “% drug release at 30 minutes” value is 3.3% and the “% drug release at 120 minutes” value was found to be 8.4%.

The term Solubility denotes how much of the substance goes into solution per volume.

(Values after US10994013B2, “Solid dosage form containing arabinogalactan” (TEMPLE UNIVERSITY—OF THE COMMONWEALTH SYSTEM OF HIGHER …, priority 2013, dated 2021).)
